Measured values: ChEMBL document CHEMBL1201862, “PubChem BioAssay data set” (2004)
Calls of active or inactive are those of the source.

Assays:
[1] = A Cell Based Secondary Assay To Explore Cytotoxicity of Compounds that Sensitize Mycobacterium Tuberculosis to Beta-Lactam Antibiotics.; assay type: functional
[2] = M. tuberculosis H37Rv growth inhibitors, H37Rv strain (AID 1626); assay type: functional
[3] = inhibitors of intracellular T. cruzi replication, confirmation, NIH3T3 host cells, beta-gal luminescence (AID 2044); assay type: functional, cell-based;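 also: intracellular parasites grown in NIH/3T3 mouse fibroblasts as host cells; luminescent beta-galactosidase reporter signal from transgenic T. cruzi replicating inside host cells; inhibitors lower the luminescence signal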
[4] = cytotoxicity toward NIH3T3 fibroblasts, dose response, counter-screen, cell-based, ATP luminescence, mouse fibroblasts (AID 2010); assay type: functional;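 also: cells exposed to compound for about 90 hours before reading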
[5] = target: T1, Short transient receptor potential channel 4 (Mus musculus, UniProt Q9QUQ5); assay: mouse TRPC4 channel inhibitors, dose response, cell-based, HEK293 TRPC4/mu-opioid, Fluo-4 calcium (AID 434942); assay type: functional;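 also: potency of inhibitors blocking the TRPC4 calcium response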
T1 sequence (Q9QUQ5 whole entry): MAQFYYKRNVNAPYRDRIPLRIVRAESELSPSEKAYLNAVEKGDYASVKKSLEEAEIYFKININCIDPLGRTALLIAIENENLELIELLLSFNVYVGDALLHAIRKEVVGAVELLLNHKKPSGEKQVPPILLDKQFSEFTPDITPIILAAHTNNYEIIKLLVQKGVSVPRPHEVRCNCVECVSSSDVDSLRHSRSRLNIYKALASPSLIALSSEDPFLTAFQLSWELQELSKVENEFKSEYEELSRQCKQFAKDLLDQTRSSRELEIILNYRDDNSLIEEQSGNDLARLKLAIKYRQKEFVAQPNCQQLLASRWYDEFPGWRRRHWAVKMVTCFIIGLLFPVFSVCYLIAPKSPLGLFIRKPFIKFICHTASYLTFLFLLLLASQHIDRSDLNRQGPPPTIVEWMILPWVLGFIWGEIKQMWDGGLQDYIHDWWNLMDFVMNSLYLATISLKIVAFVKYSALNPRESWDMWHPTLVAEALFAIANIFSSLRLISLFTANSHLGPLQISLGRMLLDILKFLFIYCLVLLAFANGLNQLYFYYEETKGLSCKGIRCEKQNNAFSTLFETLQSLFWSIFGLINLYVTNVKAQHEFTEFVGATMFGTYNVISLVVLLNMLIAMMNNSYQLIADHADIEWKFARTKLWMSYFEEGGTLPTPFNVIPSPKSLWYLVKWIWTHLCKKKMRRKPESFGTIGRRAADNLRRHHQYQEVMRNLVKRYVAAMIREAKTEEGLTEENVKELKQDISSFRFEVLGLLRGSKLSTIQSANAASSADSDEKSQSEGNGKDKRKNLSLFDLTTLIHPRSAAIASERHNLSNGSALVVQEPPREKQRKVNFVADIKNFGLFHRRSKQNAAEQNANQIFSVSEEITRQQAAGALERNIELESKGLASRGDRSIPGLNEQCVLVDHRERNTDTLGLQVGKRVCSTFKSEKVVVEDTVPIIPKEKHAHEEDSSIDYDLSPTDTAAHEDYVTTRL

[6] = target: T2, Microphthalmia-associated transcription factor (Homo sapiens, UniProt O75030); assay: TRPM1 promoter luciferase signal decrease, dose response, MITF inhibitor project, cell-based, SK-MEL-5, cherry-picked, set 3 (AID 493073); assay type: functional
T2 sequence (O75030 whole entry): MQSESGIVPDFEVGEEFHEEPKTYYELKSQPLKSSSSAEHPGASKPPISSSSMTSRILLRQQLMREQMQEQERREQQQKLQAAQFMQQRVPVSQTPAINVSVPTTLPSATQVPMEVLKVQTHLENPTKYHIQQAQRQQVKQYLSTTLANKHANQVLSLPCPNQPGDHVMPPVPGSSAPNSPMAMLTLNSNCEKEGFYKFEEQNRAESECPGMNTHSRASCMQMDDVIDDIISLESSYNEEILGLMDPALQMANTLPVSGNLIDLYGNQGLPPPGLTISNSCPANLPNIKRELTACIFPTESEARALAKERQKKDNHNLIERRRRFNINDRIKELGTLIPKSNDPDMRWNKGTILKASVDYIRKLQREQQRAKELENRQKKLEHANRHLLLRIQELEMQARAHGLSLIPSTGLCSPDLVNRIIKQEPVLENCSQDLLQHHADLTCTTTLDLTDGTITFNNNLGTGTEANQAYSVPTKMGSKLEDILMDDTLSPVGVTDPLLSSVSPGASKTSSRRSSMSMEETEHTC

[7] = cells
[8] = target: T3, Mannose-6-phosphate isomerase (Homo sapiens, UniProt P34949); assay: inhibitors of human PMI, primary screen, biochemical, fluorescence intensity, coupled assay (AID 1209)
T3 sequence (P34949 whole entry): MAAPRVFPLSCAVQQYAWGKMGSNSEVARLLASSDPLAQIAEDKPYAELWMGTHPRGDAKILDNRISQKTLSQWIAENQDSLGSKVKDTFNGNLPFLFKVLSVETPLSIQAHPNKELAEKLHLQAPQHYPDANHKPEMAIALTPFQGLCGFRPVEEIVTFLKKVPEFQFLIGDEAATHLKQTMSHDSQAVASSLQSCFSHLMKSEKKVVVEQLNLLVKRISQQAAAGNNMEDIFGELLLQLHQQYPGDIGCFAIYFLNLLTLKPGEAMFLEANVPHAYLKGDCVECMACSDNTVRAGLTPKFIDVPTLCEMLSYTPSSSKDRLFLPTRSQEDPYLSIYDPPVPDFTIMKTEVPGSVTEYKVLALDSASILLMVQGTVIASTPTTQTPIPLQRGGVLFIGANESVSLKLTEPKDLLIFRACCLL

[9] = target: T4, Heat shock factor protein 1 (Mus musculus, UniProt P38532); assay: HSF1 potentiators in luciferase reporter cells, confirmation, cell-based, NIH3T3, luminescence, dose retest (AID 435004); assay type: functional;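 also: stress induced by proteasome inhibitor MG132 added 30 min after compound; luciferase reporter driven by HSF1 response element in NIH3T3 cells; actives raise luminescence as potentiators of the MG132 stress response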
T4 sequence (P38532 whole entry): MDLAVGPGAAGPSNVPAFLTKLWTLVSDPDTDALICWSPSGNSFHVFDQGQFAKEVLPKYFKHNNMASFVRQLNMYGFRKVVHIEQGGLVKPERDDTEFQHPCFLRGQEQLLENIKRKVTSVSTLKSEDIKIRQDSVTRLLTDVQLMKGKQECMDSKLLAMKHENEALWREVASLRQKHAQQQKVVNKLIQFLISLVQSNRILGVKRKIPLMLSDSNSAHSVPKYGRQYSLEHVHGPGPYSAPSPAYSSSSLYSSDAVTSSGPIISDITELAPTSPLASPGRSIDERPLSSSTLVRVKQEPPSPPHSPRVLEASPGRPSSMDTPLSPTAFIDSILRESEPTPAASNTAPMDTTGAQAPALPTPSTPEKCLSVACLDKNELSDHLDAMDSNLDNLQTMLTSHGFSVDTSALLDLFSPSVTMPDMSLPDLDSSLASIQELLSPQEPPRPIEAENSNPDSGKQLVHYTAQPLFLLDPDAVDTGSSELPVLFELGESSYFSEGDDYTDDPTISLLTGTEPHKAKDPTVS

[10] = target: Protein-tyrosine kinase 2-beta (Homo sapiens, UniProt Q14289);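 also: potency of inhibitors of PYK2 kinase phosphorylation of poly-GT substrate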
[11] = cytotoxicity in HPDE-C7 cells, cell-based, fluorescence, HTS (AID 430); assay type: functional; settings: Homo sapiens
[12] = cytotoxicity in KRAS-transformed pancreatic duct cells, primary screen, cell-based, fluorescence, HTS (AID 431); assay type: functional; settings: Homo sapiens;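 also: cell line used: HPDE-C7K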
[13] = NIH-3T3 fibroblast cytotoxicity, dose response, cytotoxicity control, cell-based, fluorescence, Alamar Blue, secondary assay (AID 2327); assay type: functional;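 also: NIH-3T3 mouse fibroblasts cultured with fluconazole at 8 µg/mL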
[14] = C. albicans growth with fluconazole, confirmation, fluorescence, retest (AID 2467); assay type: functional, cell-based
[15] = target: T5, Serine/threonine-protein phosphatase (Candida dubliniensis (strain CD36 / CBS 7987 / NCPF 3949 / NRRLY-17841) (Yeast), UniProt B9W6M3); assay: calcineurin pathway inhibitors in yeast reporter, dose response, S. cerevisiae, CDRE-lacZ, luminescence, secondary (AID 2388); assay type: functional, cell-based;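 also: yeast reporter cells carrying a calcineurin-responsive lacZ construct stimulated with calcium chloride; luminescent beta-galactosidase reporter signal in whole cells rather than isolated phosphatase activity; potency for inhibition where a drop in reporter signal means calcineurin blockade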
T5 sequence (B9W6M3 whole entry): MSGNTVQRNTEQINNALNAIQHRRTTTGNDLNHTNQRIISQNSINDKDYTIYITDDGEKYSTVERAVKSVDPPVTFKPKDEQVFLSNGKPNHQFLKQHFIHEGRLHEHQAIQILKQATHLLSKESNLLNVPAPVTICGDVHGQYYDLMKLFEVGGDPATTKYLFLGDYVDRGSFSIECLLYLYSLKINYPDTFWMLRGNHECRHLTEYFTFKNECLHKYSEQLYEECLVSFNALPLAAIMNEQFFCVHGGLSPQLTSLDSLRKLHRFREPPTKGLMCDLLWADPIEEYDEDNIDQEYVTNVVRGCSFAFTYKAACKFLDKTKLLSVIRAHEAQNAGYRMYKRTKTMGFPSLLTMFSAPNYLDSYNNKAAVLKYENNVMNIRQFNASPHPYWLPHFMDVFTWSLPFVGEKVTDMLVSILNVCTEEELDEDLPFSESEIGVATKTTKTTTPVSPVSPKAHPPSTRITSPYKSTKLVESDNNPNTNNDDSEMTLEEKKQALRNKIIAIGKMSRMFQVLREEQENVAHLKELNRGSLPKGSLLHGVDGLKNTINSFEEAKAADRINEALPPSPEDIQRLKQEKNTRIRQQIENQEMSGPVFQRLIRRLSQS

[16] = tested on: INS1; assay: beta cell apoptosis inhibitors, cytokine rescue, dose response, luminescence, retest (AID 449756); assay type: functional, cell-based; settings: Rattus norvegicus;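 also: cell death triggered by IL-1 beta plus TNF-alpha plus IFN-gamma mixture; protective hits raise ATP signal compared with cytokine alone wells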
[17] = target: ATP-dependent molecular chaperone HSP82 (Candida albicans (strain WO-1) (Yeast), UniProt C4YTQ8); assay: loss of DOC-induced GRE-beta-galactosidase reporter signal, dose response, Hsp90 inhibitor project, S. cerevisiae, luminescence (AID 2400); assay type: functional, cell-based;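 also: beta-galactosidase luminescence from glucocorticoid response element reporter as proxy for Hsp90 function; inhibitor potency where signal loss means Hsp90 inhibition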
[18] = HEK293T cytotoxicity, dose response, cytotoxicity control for miR-122 modulator project, cell-based, inhibitor set, cherry-pick, set 2 (AID 720697); assay type: functional
[19] = HEK293T cytotoxicity, dose response, cytotoxicity control for miR-122 modulator project, cell-based, activator set, cherry-pick (AID 720690); assay type: functional;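 also: HEK293T human cells scored for general mammalian cytotoxicity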
[20] = target: Estrogen receptor beta (Homo sapiens, UniProt Q92731); assay: ERβ–SRC-3 coactivator interaction inhibitors, confirmation, orthogonal assay, biochemical, ELISA, streptavidin-HRP readout (AID 1060)
[21] = target: T6, Rac GTPase-activating protein 1 (Homo sapiens, UniProt Q9H0H5); assay: MgcRacGAP GTPase-activating activity inhibitors, confirmation, biochemical, ADP Hunter fluorescence, primary and confirmatory (AID 624330); assay type: functional
T6 sequence (Q9H0H5 whole entry): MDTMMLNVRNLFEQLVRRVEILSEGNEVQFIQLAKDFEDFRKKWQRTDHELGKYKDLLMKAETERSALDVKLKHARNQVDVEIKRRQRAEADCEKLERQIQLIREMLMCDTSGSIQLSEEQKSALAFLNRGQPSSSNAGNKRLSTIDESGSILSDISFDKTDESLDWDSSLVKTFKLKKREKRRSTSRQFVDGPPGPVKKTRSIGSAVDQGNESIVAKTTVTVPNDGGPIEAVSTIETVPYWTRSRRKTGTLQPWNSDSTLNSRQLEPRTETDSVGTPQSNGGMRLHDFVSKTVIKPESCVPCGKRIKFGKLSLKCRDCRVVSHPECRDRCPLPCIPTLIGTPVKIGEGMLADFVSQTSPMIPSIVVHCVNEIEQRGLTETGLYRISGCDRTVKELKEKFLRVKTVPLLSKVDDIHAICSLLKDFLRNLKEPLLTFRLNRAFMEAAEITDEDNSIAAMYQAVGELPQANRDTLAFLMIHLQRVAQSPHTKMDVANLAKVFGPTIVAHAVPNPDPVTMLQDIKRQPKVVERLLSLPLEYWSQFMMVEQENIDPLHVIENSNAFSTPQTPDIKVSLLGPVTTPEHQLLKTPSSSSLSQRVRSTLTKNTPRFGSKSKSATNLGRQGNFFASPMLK

Protein-tyrosine kinase 2-beta, sequence (Q14289 whole entry): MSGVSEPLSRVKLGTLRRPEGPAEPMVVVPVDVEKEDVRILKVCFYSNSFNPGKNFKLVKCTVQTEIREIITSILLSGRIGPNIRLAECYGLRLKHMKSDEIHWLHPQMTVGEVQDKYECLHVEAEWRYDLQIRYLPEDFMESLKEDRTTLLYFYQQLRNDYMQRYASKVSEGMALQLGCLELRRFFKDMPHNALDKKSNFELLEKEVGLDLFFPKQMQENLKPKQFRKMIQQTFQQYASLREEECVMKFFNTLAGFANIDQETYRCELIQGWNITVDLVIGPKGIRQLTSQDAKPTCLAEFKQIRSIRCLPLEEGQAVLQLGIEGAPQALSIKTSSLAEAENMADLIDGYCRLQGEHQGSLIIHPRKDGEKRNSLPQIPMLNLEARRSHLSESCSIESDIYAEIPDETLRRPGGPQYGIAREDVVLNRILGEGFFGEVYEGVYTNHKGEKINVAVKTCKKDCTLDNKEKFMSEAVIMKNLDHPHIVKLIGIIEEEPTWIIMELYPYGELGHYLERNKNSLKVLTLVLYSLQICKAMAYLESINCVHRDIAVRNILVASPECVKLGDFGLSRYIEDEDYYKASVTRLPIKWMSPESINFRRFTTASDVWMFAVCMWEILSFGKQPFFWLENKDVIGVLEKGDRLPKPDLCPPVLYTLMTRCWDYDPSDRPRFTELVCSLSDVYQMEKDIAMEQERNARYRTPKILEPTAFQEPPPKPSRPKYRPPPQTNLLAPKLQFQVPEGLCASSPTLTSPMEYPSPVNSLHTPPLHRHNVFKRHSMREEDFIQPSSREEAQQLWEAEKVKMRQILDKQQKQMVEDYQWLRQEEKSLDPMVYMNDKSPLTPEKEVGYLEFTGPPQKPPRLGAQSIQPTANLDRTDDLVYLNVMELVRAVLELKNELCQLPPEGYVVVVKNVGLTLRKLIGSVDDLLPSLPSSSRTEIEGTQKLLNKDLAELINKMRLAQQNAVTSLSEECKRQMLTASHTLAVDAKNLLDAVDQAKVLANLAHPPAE
Estrogen receptor beta, sequence (Q92731 whole entry): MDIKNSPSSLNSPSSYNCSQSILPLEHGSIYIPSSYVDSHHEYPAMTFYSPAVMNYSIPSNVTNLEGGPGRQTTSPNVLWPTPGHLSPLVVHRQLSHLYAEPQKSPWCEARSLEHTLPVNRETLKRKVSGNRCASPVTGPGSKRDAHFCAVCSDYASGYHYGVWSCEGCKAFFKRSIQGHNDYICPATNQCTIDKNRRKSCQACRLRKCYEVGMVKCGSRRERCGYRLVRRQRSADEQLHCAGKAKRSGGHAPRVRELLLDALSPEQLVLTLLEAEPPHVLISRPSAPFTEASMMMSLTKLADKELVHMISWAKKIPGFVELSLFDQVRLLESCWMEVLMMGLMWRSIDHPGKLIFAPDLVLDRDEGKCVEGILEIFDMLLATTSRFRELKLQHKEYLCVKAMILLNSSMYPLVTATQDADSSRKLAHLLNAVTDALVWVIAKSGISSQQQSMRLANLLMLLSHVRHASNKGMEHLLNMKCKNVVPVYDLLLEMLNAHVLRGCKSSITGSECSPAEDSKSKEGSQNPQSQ
ATP-dependent molecular chaperone HSP82, sequence (C4YTQ8 whole entry): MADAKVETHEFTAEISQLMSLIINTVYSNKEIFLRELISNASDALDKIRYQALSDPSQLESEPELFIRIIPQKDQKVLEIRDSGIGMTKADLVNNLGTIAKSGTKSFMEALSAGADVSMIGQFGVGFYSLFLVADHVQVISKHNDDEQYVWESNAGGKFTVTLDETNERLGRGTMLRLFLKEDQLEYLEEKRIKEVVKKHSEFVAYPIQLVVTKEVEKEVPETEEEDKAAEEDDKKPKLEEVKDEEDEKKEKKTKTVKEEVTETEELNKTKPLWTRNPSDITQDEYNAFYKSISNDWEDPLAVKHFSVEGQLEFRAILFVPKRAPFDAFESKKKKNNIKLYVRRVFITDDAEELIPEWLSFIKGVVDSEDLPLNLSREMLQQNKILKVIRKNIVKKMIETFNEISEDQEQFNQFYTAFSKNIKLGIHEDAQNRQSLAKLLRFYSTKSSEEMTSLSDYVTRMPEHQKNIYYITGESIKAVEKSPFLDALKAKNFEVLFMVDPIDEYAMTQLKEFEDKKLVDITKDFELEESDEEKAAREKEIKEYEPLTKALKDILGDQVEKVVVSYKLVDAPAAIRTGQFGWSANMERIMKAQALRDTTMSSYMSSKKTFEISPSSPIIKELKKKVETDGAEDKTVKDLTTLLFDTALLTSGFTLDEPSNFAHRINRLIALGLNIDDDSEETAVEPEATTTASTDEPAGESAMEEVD

CCOC(=O)c1c(C)n(-c2ccccc2)c2ccc(OCCN(C)C)cc12
CC50 [1]: > 40 µM (active)

CCOC(=O)CNC(=O)CSc1ncnc2c1nnn2-c1ccc(F)cc1
IC50 [2]: > 100 µM (active)

Cc1ccc(-c2c[n+](Cc3cccc(Cl)c3)c3n2CCC3)cc1
EC50 [3]: < 0.1 µM (active) | EC50 [4]: > 30 µM (not active) | EC50 [5]: 1.33 µM (active) | AC50 [6]: 12.2 µM (active) | EC50 [7]: 0.025 µM (active)

Cc1ccc2cccnc2c1NC(=S)NC(=O)c1ccccc1
IC50 [8]: > 50 µM (not active) | EC50 [9]: > 260 µM (inactive)

N#C/C(=C/c1ccc(-c2ccc(Br)cc2)o1)C(=O)NC1CCCCC1
IC50 [2]: > 100 µM (active)

Cc1nn2c(c1-c1ccccc1)N=C1CCCC(O)=C1C2c1ccccc1 (stereo not given)
IC50 [10]: > 69.5 µM (not active)

CCC(C)Nc1c2c(nc3c(-c4ccccc4)c(C)nn13)CCC2 (stereo not given)
CC50 [1]: > 40 µM (active)

CCOC(=O)C1CCN(Cc2c[nH]nc2-c2ccc(C)cc2)CC1
EC50 [11]: > 20 µM (not active) | EC50 [12]: > 20 µM (not active)

O=C(Oc1c(CN2CCOCC2)cc(Cl)c2cccnc12)c1ccc(F)cc1
EC50 [13]: > 160 µM (inconclusive) | EC50 [14]: 1.54 µM (active) | EC50 [11]: 4.28 µM (active) | EC50 [3]: 4.69 µM (active) | EC50 [12]: 12.7 µM (active) | EC50 [15]: > 180 µM (inactive) | EC50 [4]: > 60 µM (not active) | AC50 [16]: 3.99 µM (active) | EC50 [17]: > 160 µM (inactive) | AC50 [18]: 5.7 µM (active) | AC50 [19]: 9.1 µM (active)

Cc1ccccc1-c1ccc(Nc2ccc(N3CCOCC3)cc2)nn1
EC50 [3]: 1.42 µM (active) | IC50 [20]: < 0.023 µM (not active) | IC50 [10]: 14.5 µM (not active) | EC50 [4]: > 60 µM (not active) | IC50 [21]: 79.6 µM (active)
